What is called IC50 is the point on the concentration scale where inhibition reaches its midpoint.

The record followed here is patent US9890156B2, “Bicyclic heterocycles as FGFR4 inhibitors” (Incyte Corporation, priority 2015, dated 2018).

In test [1] the target is FGFR1 (Homo sapiens (Human), UniProt P11362). The test is described as follows: FGFR Enzymatic Assay (FRET, peptide phosphorylation), FGFR1. Particulars: read-out: FGFR1 IC50; pre-incubated for 4 hours; ATP 210 uM.
Test [2] has as its target FGFR4 (Homo sapiens (Human), UniProt P22455). Kind of test: FGFR Enzymatic Assay (FRET, peptide phosphorylation), FGFR4.
For test [3], the target named is FGFR2 (Homo sapiens (Human), UniProt P21802). The test is described as follows: FGFR Enzymatic Assay (FRET, peptide phosphorylation), FGFR2. The following applies: read-out: FGFR2 IC50; pre-incubated for 4 hours; ATP 100 uM.
FGFR2, sequence (P21802 22-821): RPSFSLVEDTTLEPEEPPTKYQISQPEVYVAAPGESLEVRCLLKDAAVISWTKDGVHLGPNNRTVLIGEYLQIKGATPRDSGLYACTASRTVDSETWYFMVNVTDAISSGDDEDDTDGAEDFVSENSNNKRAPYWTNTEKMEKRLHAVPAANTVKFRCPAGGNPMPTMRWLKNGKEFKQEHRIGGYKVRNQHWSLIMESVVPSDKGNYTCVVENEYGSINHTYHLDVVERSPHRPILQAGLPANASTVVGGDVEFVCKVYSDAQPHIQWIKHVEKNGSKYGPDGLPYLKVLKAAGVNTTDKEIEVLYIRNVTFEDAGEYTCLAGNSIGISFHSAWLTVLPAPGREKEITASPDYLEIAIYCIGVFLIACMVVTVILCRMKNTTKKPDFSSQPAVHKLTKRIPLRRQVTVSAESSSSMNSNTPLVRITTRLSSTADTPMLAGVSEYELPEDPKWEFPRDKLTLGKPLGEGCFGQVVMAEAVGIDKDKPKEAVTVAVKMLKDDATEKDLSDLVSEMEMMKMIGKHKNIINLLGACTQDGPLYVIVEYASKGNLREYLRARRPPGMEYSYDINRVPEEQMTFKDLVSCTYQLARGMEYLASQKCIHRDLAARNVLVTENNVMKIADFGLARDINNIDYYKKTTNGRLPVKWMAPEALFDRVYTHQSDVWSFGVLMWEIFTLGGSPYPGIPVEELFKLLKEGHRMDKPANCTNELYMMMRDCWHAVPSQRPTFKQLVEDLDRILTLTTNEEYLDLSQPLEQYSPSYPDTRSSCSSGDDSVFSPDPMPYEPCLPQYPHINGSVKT
Test [4] addresses FGFR3 (Homo sapiens (Human), UniProt P22607). Kind of test: FGFR Enzymatic Assay (FRET, peptide phosphorylation), FGFR3. It is filed as biochemical. Particulars: pre-incubated for 4 hours; ATP 140 μM.
Setting [5] is: read-out: FGFR4 IC50, pre-incubated for 4 hours, ATP 600 uM.

Where two headings read alike, the source gives them in different places.

FGFR1, sequence (P11362 22-822): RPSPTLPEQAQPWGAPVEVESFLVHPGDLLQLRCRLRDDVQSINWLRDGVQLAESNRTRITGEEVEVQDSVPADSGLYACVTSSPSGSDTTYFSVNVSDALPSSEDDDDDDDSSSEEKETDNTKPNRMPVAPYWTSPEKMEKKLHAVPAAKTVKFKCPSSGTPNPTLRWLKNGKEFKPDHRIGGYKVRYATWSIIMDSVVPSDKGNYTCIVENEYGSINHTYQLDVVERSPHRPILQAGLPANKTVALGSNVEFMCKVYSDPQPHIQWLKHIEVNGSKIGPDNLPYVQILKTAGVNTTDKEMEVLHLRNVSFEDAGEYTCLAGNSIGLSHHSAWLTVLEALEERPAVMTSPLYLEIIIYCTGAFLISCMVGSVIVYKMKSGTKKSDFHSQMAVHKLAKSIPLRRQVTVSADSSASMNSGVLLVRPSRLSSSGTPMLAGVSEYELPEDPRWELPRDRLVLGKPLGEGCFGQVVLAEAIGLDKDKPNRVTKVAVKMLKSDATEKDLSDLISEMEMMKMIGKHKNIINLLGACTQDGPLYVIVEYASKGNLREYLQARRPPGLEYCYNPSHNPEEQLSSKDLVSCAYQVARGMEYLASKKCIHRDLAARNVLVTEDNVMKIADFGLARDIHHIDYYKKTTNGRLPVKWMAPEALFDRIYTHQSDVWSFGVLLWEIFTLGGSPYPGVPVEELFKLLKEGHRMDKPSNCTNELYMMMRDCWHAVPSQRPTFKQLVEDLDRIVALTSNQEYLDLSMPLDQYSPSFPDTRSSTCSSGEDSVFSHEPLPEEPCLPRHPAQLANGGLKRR
FGFR3, sequence (P22607 23-806): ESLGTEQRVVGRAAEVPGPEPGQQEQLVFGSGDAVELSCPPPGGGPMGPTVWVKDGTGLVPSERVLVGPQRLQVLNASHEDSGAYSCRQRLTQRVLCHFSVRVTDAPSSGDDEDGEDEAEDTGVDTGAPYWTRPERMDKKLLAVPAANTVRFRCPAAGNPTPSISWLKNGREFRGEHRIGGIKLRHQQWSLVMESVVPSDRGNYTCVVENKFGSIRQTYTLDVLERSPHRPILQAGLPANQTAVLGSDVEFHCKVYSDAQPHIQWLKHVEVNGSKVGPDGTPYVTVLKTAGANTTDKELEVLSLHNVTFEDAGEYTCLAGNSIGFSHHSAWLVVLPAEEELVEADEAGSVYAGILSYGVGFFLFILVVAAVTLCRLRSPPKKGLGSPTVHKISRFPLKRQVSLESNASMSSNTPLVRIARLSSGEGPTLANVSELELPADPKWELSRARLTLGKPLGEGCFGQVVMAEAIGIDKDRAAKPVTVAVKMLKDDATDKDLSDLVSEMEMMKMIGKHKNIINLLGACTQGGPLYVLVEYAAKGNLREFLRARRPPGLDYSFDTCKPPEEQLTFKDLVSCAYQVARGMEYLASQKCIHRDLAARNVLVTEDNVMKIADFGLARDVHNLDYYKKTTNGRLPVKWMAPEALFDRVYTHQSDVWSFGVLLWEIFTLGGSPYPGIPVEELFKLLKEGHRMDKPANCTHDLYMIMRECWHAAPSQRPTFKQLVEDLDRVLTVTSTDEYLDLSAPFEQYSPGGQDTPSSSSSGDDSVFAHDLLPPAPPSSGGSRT
FGFR4, sequence (P22455 22-802): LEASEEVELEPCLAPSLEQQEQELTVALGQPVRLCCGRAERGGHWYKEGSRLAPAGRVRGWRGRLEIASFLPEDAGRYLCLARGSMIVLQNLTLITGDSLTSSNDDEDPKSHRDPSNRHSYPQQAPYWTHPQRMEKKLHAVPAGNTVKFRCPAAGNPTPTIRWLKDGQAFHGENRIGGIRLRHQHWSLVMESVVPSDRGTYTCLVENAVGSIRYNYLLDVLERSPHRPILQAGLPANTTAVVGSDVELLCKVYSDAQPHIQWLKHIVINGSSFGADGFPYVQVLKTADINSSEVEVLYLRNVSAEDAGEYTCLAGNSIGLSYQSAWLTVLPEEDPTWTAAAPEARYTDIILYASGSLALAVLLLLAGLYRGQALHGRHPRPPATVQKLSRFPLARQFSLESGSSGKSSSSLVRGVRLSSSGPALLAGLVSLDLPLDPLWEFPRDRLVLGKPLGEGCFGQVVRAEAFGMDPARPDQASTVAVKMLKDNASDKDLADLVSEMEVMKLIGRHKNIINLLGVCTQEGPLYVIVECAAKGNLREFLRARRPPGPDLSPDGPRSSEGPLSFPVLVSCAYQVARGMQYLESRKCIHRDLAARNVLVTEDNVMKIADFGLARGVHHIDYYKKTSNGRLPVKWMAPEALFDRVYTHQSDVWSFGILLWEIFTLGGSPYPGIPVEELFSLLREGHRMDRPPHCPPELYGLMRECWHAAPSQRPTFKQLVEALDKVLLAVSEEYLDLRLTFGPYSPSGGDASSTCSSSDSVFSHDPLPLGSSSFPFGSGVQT

As to `C=CC(=O)NCc1cc2c(cn1)CN(c1c(F)c(OC)cc(OC)c1F)C(=O)N2Cc1cnn(C)c1` [Example 18, N-((3-(2,6-difluoro-3,5-dimethoxyphenyl)-1-((1-methyl-1H-pyrazol-4-yl)methyl)-2-oxo-1,2,3,4-tetrahydropyrido[4,3-d]pyrimidin-7-yl)methyl)acrylamide], the IC50 in test [1] was 0.03 to 0.2 µM; in test [2] (setting [5]), < 0.01 µM.

In the case of `C=CC(=O)NCc1cc2c(cn1)CN(c1c(F)c(OC)cc(OC)c1F)C(=O)N2CC1CCN(C(=O)OC)CC1` [Example 33, methyl 4-((7-(acrylamidomethyl)-3-(2,6-difluoro-3,5-dimethoxyphenyl)-2-oxo-3,4-dihydropyrido[4,3-d]pyrimidin-1(2H)-yl)methyl)piperidine-1-carboxylate], the results for the IC50 in test [3], in test [1] and in test [2] (setting [5]) were > 0.2 µM, > 0.2 µM and < 0.01 µM, respectively.

As to `C=CC(=O)NCc1cc2c(cn1)CN(c1c(F)c(OC)cc(OC)c1F)C(=O)N2C[C@H]1CCOC1` [Example 19, (R)—N-((3-(2,6-difluoro-3,5-dimethoxyphenyl)-2-oxo-1-((tetrahydrofuran-3-yl)methyl)-1,2,3,4-tetrahydropyrido[4,3-d]pyrimidin-7-yl)methyl)acrylamide], the IC50 in test [4] is > 0.2 µM; in test [3], > 0.2 µM; in test [1] it was > 0.2 µM; in test [2] (setting [5]), < 0.01 µM.

In the case of `C=CC(=O)NCc1cc2c(cn1)CN(c1c(F)c(OC)cc(OC)c1F)C(=O)N2C` [Example 22, N-((3-(2,6-difluoro-3,5-dimethoxyphenyl)-1-methyl-2-oxo-1,2,3,4-tetrahydropyrido[4,3-d]pyrimidin-7-yl)methyl)acrylamide], the IC50 is > 0.2 µM in test [4], > 0.2 µM in test [3], > 0.2 µM in test [1] and 0.01 to 0.03 µM in test [2].

As to `C=CC(=O)NCc1cc2c(cn1)CN(c1c(F)c(OC)cc(OC)c1F)C(=O)N2CC(F)(F)F` [Example 21, N-((3-(2,6-difluoro-3,5-dimethoxyphenyl)-2-oxo-1-(2,2,2-trifluoroethyl)-1,2,3,4-tetrahydropyrido[4,3-d]pyrimidin-7-yl)methyl)acrylamide], the IC50 in test [4] is > 0.2 µM; in test [3] it was > 0.2 µM; in test [1] it was > 0.2 µM; in test [2] (setting [5]), < 0.01 µM.

As for `C=CC(=O)NCc1cc2c(cn1)CN(c1c(F)c(OC)cc(OC)c1F)C(=O)C2(C)C` [Example 24, N-((7-(2,6-difluoro-3,5-dimethoxyphenyl)-5,5-dimethyl-6-oxo-5,6,7,8-tetrahydro-2,7-naphthyridin-3-yl)methyl)acrylamide], the IC50 in test [4] is […]; in test [3], […]; in test [1], […]; in test [2] (setting [5]), […].

For `C=CC(=O)NCc1cc2c(cn1)CN(c1c(F)c(OC)cc(OC)c1F)C(=O)N2C(C)C` [Example 15, N-((3-(2,6-difluoro-3,5-dimethoxyphenyl)-1-isopropyl-2-oxo-1,2,3,4-tetrahydropyrido[4,3-d]pyrimidin-7-yl)methyl)acrylamide], the IC50 is > 0.2 µM in test [4], > 0.2 µM in test [3], > 0.2 µM in test [1] and < 0.01 µM in test [2] (setting [5]).

For the compound `C=CC(=O)NCc1cc2c(cn1)CN(c1c(F)c(OC)cc(OC)c1F)C(=O)N2C1CCCC1` [Example 28, N-((1-cyclopentyl-3-(2,6-difluoro-3,5-dimethoxyphenyl)-2-oxo-1,2,3,4-tetrahydropyrido[4,3-d]pyrimidin-7-yl)methyl)acrylamide], the IC50 in test [1] was 0.03 to 0.2 µM; in test [2] (setting [5]), < 0.01 µM.

For the compound `C=CC(=O)NCc1cc2c(cn1)CN(c1c(F)c(OC)cc(OC)c1F)C(=O)N2CC` [Example 2, N-((3-(2,6-difluoro-3,5-dimethoxyphenyl)-1-ethyl-2-oxo-1,2,3,4-tetrahydropyrido[4,3-d]pyrimidin-7-yl)methyl)acrylamide], the IC50 is > 0.2 µM in test [4], > 0.2 µM in test [3], > 0.2 µM in test [1] and < 0.01 µM in test [2] (setting [5]).

`C=CC(=O)NCc1cc2c(cn1)CN(c1c(F)c(OC)cc(OC)c1F)C(=O)N2c1ccncc1` [Example 26, N-((3-(2,6-difluoro-3,5-dimethoxyphenyl)-2-oxo-1-(pyridin-4-yl)-1,2,3,4-tetrahydropyrido[4,3-d]pyrimidin-7-yl)methyl)acrylamide]: the IC50 in test [4] was > 0.2 µM; in test [3], > 0.2 µM; in test [1], > 0.2 µM; in test [2], 0.01 to 0.03 µM.

Regarding `C=CC(=O)NCc1cc2c(cn1)CN(c1c(F)c(OC)cc(OC)c1F)C(=O)N2CC1CCN(C(=O)NC(C)C)CC1` [Example 34, 4-((7-(acrylamidomethyl)-3-(2,6-difluoro-3,5-dimethoxyphenyl)-2-oxo-3,4-dihydropyrido[4,3-d]pyrimidin-1(2H)-yl)methyl)-N-isopropylpiperidine-1-carboxamide], the IC50 in test [4] was > 0.2 µM; in test [3], > 0.2 µM; in test [1], > 0.2 µM; in test [2] (setting [5]), < 0.01 µM.

As for `C=CC(=O)NCc1ncc2c(c1C)C1(CC1)C(=O)N(c1c(F)c(OC)cc(OC)c1F)C2` [Example 37, N-((2′-(2,6-difluoro-3,5-dimethoxyphenyl)-5′-methyl-3′-oxo-2′,3′-dihydro-1′H-spiro[cyclopropane-1,4′-[2,7]naphthyridine]-6′-yl)methyl)acrylamide], the IC50 in test [4] is > 0.2 µM; in test [3], > 0.2 µM; in test [1] it was > 0.2 µM; in test [2], 0.01 to 0.03 µM.

`C=CC(=O)NCc1cc2c(cn1)CN(c1c(F)c(OC)cc(OC)c1F)C(=O)N2CCF` [Example 27, N-((3-(2,6-difluoro-3,5-dimethoxyphenyl)-1-(2-fluoroethyl)-2-oxo-1,2,3,4-tetrahydropyrido[4,3-d]pyrimidin-7-yl)methyl)acrylamide]: the IC50 in test [4] was > 0.2 µM; in test [3], > 0.2 µM; in test [1] it was > 0.2 µM; in test [2] (setting [5]), < 0.01 µM.

On to `C=CC(=O)NCc1cc2c(cn1)CN(c1c(F)c(OC)cc(OC)c1F)C(=O)N2Cc1cccc(F)c1` [Example 16, N-((3-(2,6-difluoro-3,5-dimethoxyphenyl)-1-(3-fluorobenzyl)-2-oxo-1,2,3,4-tetrahydropyrido[4,3-d]pyrimidin-7-yl)methyl)acrylamide], for which the IC50 was 0.03 to 0.2 µM in test [1] and 0.01 to 0.03 µM in test [2].

Consider `C=CC(=O)NCc1cc2c(cn1)CN(c1c(F)c(OC)cc(OC)c1F)C(=O)N2CC(C)C` [Example 29, N-((3-(2,6-difluoro-3,5-dimethoxyphenyl)-1-isobutyl-2-oxo-1,2,3,4-tetrahydropyrido[4,3-d]pyrimidin-7-yl)methyl)acrylamide], for which the IC50 in test [4] is > 0.2 µM; in test [1], 0.03 to 0.2 µM; in test [2] (setting [5]) it was < 0.01 µM.

Turning to `C=CC(=O)NCc1cc2c(cn1)CN(c1c(F)c(OC)cc(OC)c1F)C(=O)N2CC1CC1` [Example 13, N-((1-(cyclopropylmethyl)-3-(2,6-difluoro-3,5-dimethoxyphenyl)-2-oxo-1,2,3,4-tetrahydropyrido[4,3-d]pyrimidin-7-yl)methyl)acrylamide], the IC50 in test [1] is 0.03 to 0.2 µM; in test [2] (setting [5]), < 0.01 µM.

Consider `C=CC(=O)NCc1cc2c(cn1)CN(c1c(F)c(OC)cc(OC)c1F)C(=O)C21CCCC1` [Example 5, N-((2′-(2,6-difluoro-3,5-dimethoxyphenyl)-3′-oxo-2′,3′-dihydro-1′H-spiro[cyclopentane-1,4′-[2,7]naphthyridine]-6′-yl)methyl)acrylamide], for which the IC50 in test [4] was > 0.2 µM; in test [3] it was > 0.2 µM; in test [1] it was > 0.2 µM; in test [2] (setting [5]), < 0.01 µM.

In the case of `C=CC(=O)NCc1cc2c(cn1)CN(c1c(F)c(OC)cc(OC)c1F)C(=O)N2C1CCC1` [Example 25, N-((1-cyclobutyl-3-(2,6-difluoro-3,5-dimethoxyphenyl)-2-oxo-1,2,3,4-tetrahydropyrido[4,3-d]pyrimidin-7-yl)methyl)acrylamide], the IC50 in test [4] is > 0.2 µM; in test [3], > 0.2 µM; in test [1], > 0.2 µM; in test [2] it was 0.01 to 0.03 µM.

Consider `C=CC(=O)NCc1cc2c(cn1)CN(c1c(F)c(OC)cc(OC)c1F)C(=O)N2C1CCOCC1` [Example 23, N-((3-(2,6-difluoro-3,5-dimethoxyphenyl)-2-oxo-1-(tetrahydro-2H-pyran-4-yl)-1,2,3,4-tetrahydropyrido[4,3-d]pyrimidin-7-yl)methyl)acrylamide], for which the IC50 in test [2] lay in the range of 0.01 to 0.03 µM.

Consider `C=CC(=O)NCc1cc2c(cn1)CN(c1c(F)c(OC)cc(OC)c1F)C(=O)C21CC1` [Example 1, N-{[2′-(2,6-difluoro-3,5-dimethoxyphenyl)-3′-oxo-2′,3′-dihydro-1′H-spiro[cyclopropane-1,4′-[2,7]naphthyridin]-6′-yl]methyl}acrylamide], for which the IC50 in test [2] (read-out: FGFR4 IC50, pre-incubated for 5 to 10 minutes, ATP 600 uM) is < 0.01 µM; in test [2] (setting [5]), < 0.01 µM.

`C=CC(=O)NCc1cc2c(cn1)CN(c1c(F)c(OC)cc(OC)c1F)C(=O)N2CC(F)F` [Example 14, N-((3-(2,6-difluoro-3,5-dimethoxyphenyl)-1-(2,2-difluoroethyl)-2-oxo-1,2,3,4-tetrahydropyrido[4,3-d]pyrimidin-7-yl)methyl)acrylamide]: the IC50 in test [4] was > 0.2 µM; in test [3] it was > 0.2 µM; in test [1] it was > 0.2 µM; in test [2] (setting [5]) it was < 0.01 µM.

For the compound `C=CC(=O)NCc1cc2c(cn1)CN(c1c(F)c(OC)cc(OC)c1F)C(=O)N2CC1CCC1` [Example 30, N-((1-(cyclobutylmethyl)-3-(2,6-difluoro-3,5-dimethoxyphenyl)-2-oxo-1,2,3,4-tetrahydropyrido[4,3-d]pyrimidin-7-yl)methyl)acrylamide], the IC50 in test [4] was > 0.2 µM; in test [1], 0.03 to 0.2 µM; in test [2] (setting [5]), < 0.01 µM.
